Results on 35 compounds are retold here after patent publication US6875761B2 (Eisai Co., Ltd., priority 1997, dated 2005).

Counter-ions that a name gives are not always drawn.

Turning to `CCN1CCN(c2nc(-c3ccc(O[C@H](C)CO)cc3)cc3sccc23)CC1` (stereo in doubt) (as salt: hydrochloride) [Example 463, 4-(4-ethylpiperazin-1-yl)-6-[4-(2-hydroxy-1-methylethoxy)phenyl]thieno[3,2-c]pyridine dihydrochloride], the melting point was 124 to 125 °C.
To `CCN1CCN(c2nc(-c3nc(C)c(CCO)s3)cc3ccccc23)CC1` (as salt: hydrochloride) belongs 149 to 154 °C; to `CCN1CCN(c2nc(C#CCc3ccccc3)cc3ccccc23)CC1` (as salt: oxalate) [Example 181, 1-(1-Ethylpiperazin-4-Yl)-3-(3-Phenyl-1-Propynyl)Isoquinoline Oxalate], 180 to 183 °C; to `CCN1CCN(c2nc(-c3ccc(C4(CCO)CCOCC4)cc3)cc3ccccc23)CC1` (as salt: hydrochloride), 138 to 139 °C.
To `CCN1CCN(c2nc(/C=C/c3ccccn3)cc3ccccc23)CC1` (as salt: hydrochloride) [Example 209, 1-(1-Ethylpiperazin-4-Yl)-3-[Trans-2-(2-Pyridyl)Ethenyl]Isoquinoline Trihydrochloride] belongs 220 °C (dec.).
To `CCN1CCN(c2nc(-c3ccccc3OC)cc3ccccc23)CC1` (as salt: hydrochloride) belongs 133 to 135 °C.
Compound `CCN1CCN(c2nc(-c3ccc(CCCO)c(Cl)c3)cc3ccccc23)CC1` (as salt: hydrochloride) [Example 30, 3-[3-chloro-4-(3-hydroxypropyl)phenyl]-1-(4-ethylpiperazin-1-yl)isoquinoline hydrochloride] registered a melting point of 123 to 124 °C.
The result for `CCN1CCN(c2nc(C#Cc3ccccc3)cc3ccccc23)CC1` (as salt: hydrochloride) [Example 177, 1-(1-Ethylpiperazin-4-Yl)-3-(Phenylethynyl)Isoquinoline Dihydrochloride] reads 133 to 136 °C; that for `CCN1CCN(c2nc(-c3ccc(OCC#N)cc3)cc3ccccc23)CC1` (as salt: hydrochloride) [Example 51, 3-(4-Cyanomethoxyphenyl)-1-(4-Ethylpiperazin-1-Yl)Isoquinoline Hydrochloride], 123 to 125 °C.
The result for `CCN1CCN(c2nc(-c3ccc(S(C)(=O)=O)cc3)cc3ccccc23)CC1` (as salt: hydrochloride) [Example 342, 1-(4-ethylpiperazin-1-yl)-3-(4-methylsulfonylphenyl)isoquinoline dihydrochloride] reads 216.5 to 218 °C (dec.).
The result for `CCN1CCN(c2nc(-c3ccc(CCCO)c(OC)c3)cc3ccccc23)CC1` (as salt: hydrochloride) [Example 33, 1-(4-ethylpiperazin-1-yl)-3-[4-(3-hydroxypropyl)-3-methoxyphenyl]isoquinoline hydrochloride] reads 123 to 124 °C; that for `CCCNC(=O)c1ccc(-c2cc3ccsc3c(N3CCN(CC)CC3)n2)cc1` (as salt: hydrochloride) [Example 449, 7-(4-ethylpiperazin-1-yl)-5-[4-(N-propylcarbamoyl)phenyl]thieno[2,3-c]pyridine dihydrochloride], 136.5 to 138 °C.
Consider `CCN1CCN(c2nc(-c3ccc(OCCO)cc3)cc3ccsc23)CC1` (as salt: hydrochloride) [Example 259, 7-(4-ethylpiperazin-1-yl)-5-(4-hydroxyethoxyphenyl)thieno[2,3-c]pyridine Hydrochloride], for which the melting point is 135 to 136 °C.
`CCN1CCN(c2nc(-c3ccc(S(=O)(=O)CC)nc3)cc3ccccc23)CC1` (as salt: hydrochloride) [Example 130, 3-[(2-Ethylsulfonylpyridin)-5-yl]-1-(4-Ethylpiperazin-1-yl)Isoquinoline Hydrochloride] showed a melting point of 155 to 159 °C.
Take `CCN1CCN(c2nc(-c3ccc(OCCO)cc3)cc3ccc(F)cc23)CC1` (as salt: hydrochloride): the melting point was in the range of 225 to 229 °C.
Regarding `CC(C)(O)COc1ccc(-c2cc3sccc3c(N3CCN(CCF)CC3)n2)cc1` (as salt: hydrochloride) [Example 294, 6-[4-(2-methyl-2-hydroxypropoxy)phenyl]-4-[4-(2-fluoroethyl)piperazin-1-yl]thieno[3,2-c]pyridine], the melting point is 135 to 137 °C.
To `CCN1CCN(c2nc(-c3ccc(OCCCc4ccncc4)cc3)cc3ccccc23)CC1` (as salt: hydrochloride) [Example 57, 3-{4-[3-(4-Pyridyl)Propoxy]Phenyl}-1-(4-Ethylpiperazin-1-Yl)Isoquinoline Hydrochloride] belongs 129 to 131 °C; to `CCCCNC(=O)c1ccc(-c2cc3ccsc3c(N3CCN(CC)CC3)n2)cc1` (as salt: hydrochloride) [Example 452, 7-(4-ethylpiperazin-1-yl)-5-[4-(N-butylcarbamoyl)phenyl]thieno[2,3-c]pyridine dihydrochloride], 127.5 to 128 °C.
To `CCN1CCN(c2nc(-c3ccc(OCCF)cc3)cc3ccccc23)CC1` (as salt: hydrochloride) [Example 45, 1-(4-Ethylpiperazin-1-Yl)-3-[4-(2-Fluoroethoxy)Phenyl]Isoquinoline Dihydrochloride] belongs 223 to 224 °C (dec.); to `CCC/C(=N\O)c1ccc(-c2cc3ccccc3c(N3CCN(CC)CC3)n2)cc1` (as salt: oxalate) [Example 380, 1-(4-Ethylpiperazin-1-yl)-3-[4-(1-Hydroxyiminobutyl)Phenyl]Isoquinoline], 179.5 to 180 °C; to `CCN1CCN(c2nc(/C=C/c3ccc(S(C)(=O)=O)cc3)cc3ccccc23)CC1` (as salt: hydrochloride) [Example 201, 3-[(E)-2-(4-Methylsulfonylphenyl)Ethenyl]-1-(4-Ethylpiperazin-1-Yl)Isoquinoline Hydrochloride], 170 to 174 °C.
The result for `CCN1CCN(c2nc(-c3ccc(OC)cc3)cc3ncccc23)CC1` (as salt: hydrochloride) [Example 252, 5-(1-ethylpiperazin-4-yl)-7-(4-methoxyphenyl)-1,6-naphthyridine Dihydrochloride] reads 242 to 245 °C; that for `CCN1CCN(c2nc(-c3ccc(OC)cc3)c(OC)c3ccccc23)CC1` (as salt: hydrochloride) [Example 221, 1-(1-ethylpiperazin-4-yl)-4-methoxy-3-(4-methoxyphenyl)isoquinoline dihydrochloride], 227 to 235 °C; that for `CCN1CCN(c2nc(-c3cccc(OCCO)c3)cc3ccoc23)CC1` (as salt: hydrochloride) [Example 298, 7-(1-ethylpiperazin-4-yl)-5-[3-(2-hydroxyethoxy)phenyl]furo[2,3-c]pyridine dihydrochloride], 117 to 121 °C.
Consider `CCN1CCN(c2nc(-c3ccc4c(c3)CC(CO)CO4)cc3ccccc23)CC1` (centres unmarked) (as salt: hydrochloride) [Example 122, 3-(3-Hydroxymethylchroman-6-yl)-1-(4-Ethylpiperazin-1-yl)Isoquinoline Hydrochloride], for which the melting point was in the range of 168 to 172 °C.
The result for `CCN1CCN(c2nc(-c3ccc(C(C)(C)CCO)cc3)cc3ccsc23)CC1` (as salt: hydrochloride) [Example 443, 7-(4-ethylpiperazin-1-yl)-5-[4-(3-hydroxy-1,1-dimethylpropyl)phenyl]thieno[2,3-c]pyridine dihydrochloride] reads 125.5 to 127.5 °C; that for `CCN1CCN(c2nc(-c3cc(F)c(OCCOC)c(F)c3)cc3ccccc23)CC1` (as salt: hydrochloride) [Example 368, 1-(4-ethylpiperazin-1-yl)-3-(3,5-difluoro-4-methoxyethoxyphenyl)isoquinoline dihydrochloride], 110 to 112 °C; that for `CCCNS(=O)(=O)Cc1ccc(-c2cc3ccccc3c(N3CCN(CC)CC3)n2)cc1` (as salt: hydrochloride) [Example 81, 3-(4-Propylaminosulfonylmethylphenyl)-1-(4-Ethylpiperazin-1-Yl)Isoquinoline Hydrochloride], 194 to 197 °C.
For `CCN1CCN(c2nc(-c3ccc(CCC(C)O)cc3)cc3cccnc23)CC1` (centres unmarked) (as salt: hydrochloride) [Example 248, 8-(1-ethylpiperazin-4-yl)-6-[4-(3-hydroxybutyl)phenyl]-1,7-naphthyridine Dihydrochloride], the melting point lay within 118 to 121 °C.
To `CCN1CCN(c2nc(-c3cc(F)c(OCCF)c(F)c3)cc3ccccc23)CC1` (as salt: hydrochloride) [Example 371, 1-(4-ethylpiperazin-1-yl)-3-[3,5-difluoro-4-(2-fluoroethoxy)phenyl]isoquinoline dihydrochloride] belongs 105 to 105.5 °C.
The result for `CCN1CCN(c2nc(Cc3ccccc3)cc3ccccc23)CC1` (as salt: hydrochloride) [Example 419, 1-(4-ethylpiperazin-1-yl)-3-benzylisoquinoline] reads 118 to 119 °C.
`CCN1CCN(c2nc(-c3ccc(S(C)(=O)=O)nc3)cc3ccccc23)CC1` (as salt: hydrochloride) [Example 129, 3-[(2-Methylsulfonylpyridin)-5-yl]-1-(4-Ethylpiperazin-1-yl)Isoquinoline Hydrochloride] showed a melting point of 248 to 250 °C.
The result for `CCN1CCN(c2nc(-c3ccc(C4CCOCC4)nc3)cc3ccccc23)CC1` (as salt: oxalate) [Example 156, 3-[2-(tetrahydropyran-4-yl)pyridin-5-yl]-1-(4-ethylpiperazin-1-yl)isoquinoline oxalate] reads 158 to 160 °C; that for `CCN1CCN(c2nc(-c3ccc(C(=O)CC(C)C)cc3)cc3ccsc23)CC1` (as salt: hydrochloride) [Example 272, 7-(1-ethylpiperazin-4-yl)-5-[4-(3-methylbutanoyl)phenyl]thieno[2,3-c]pyridine dihydrochloride], 139 to 141 °C.
The result for `CCN1CCN(c2nc(-c3ccc(C(N)=O)cc3)cc3ccccc23)CC1` (as salt: hydrochloride) [Example 408, 1-(4-ethylpiperazin-1-yl)-3-(4-carbamoylphenyl)isoquinoline] reads 197 to 199 °C.

One may read the melting point as the temperature of the solid-liquid transition.
